From patent US20140341922A1, “Method for Overcoming Tolerance to Targeted Anti-Cancer Agent” (SUN R&DB Foundation, priority 2011, published 2014) come the findings set out here.

Assay [1] concerns LN686, FADU, and OSC19 cells. The experiment in a line: Cell counting in 3D-mimic 2D culture (PCP or UAP). The assay is classed as cell-based, human. Here is the method: Cells were cultured in 96-well poly(poly-2-hydroxyethyl methacrylate [HEMA])-coated plates (PCPs) or ultra-low attached plates (UAPs). Control IgG1 (25 μg/ml), cixutumumab (25 μg/ml), PP2 (10 μM), and an integrin β3 neutralizing antibody B3A (10 μg/ml) were diluted in culture media containing 10% FBS or IGF-1 and treated alone or in combination. To examine the effect on cancer cell proliferation, a 3-(4,5-dimethylthiazol-2-yl)-2,5-diphenyltetrazolium bromide (MTT) or 3-(4,5-dimethylthiazol-2-yl)-5-(3-carboxymethoxyphenyl)-2-(4-sulfophenyl)-2H-tetrazolium (MTS) assay was performed, and to evaluate the effect on anchorage-independent colony formation, a soft agar colony formation assay was performed according to a method in our previous report (Morgillo et al., 2006).
The PCPs were prepared according to a previously reported method (Fukazawa et al., 1995). In brief, tissue culture plates were collated twice with poly-(HEMA) (10 mg/ml in 95% ethanol) at 37° C. and then washed with phosphate-buffered saline (PBS) several times.
Since cell growth rates could be different under each set of culture conditions, the present inventor counted the cells at distinct culture periods and depicted the results in FIG. 6. The values were represented as mean±standard deviation (SD), and a statistical significance was evaluated using two-sided Student t test (*P<0.05; **P<0.01).

The test system of assay [2] is 13 HNSCC and 6 NSCLC cells. The experiment in a line: MTT cell viability in conventional 2D culture (TCPs). Type of assay: cell-based, human. Particulars: 25 μg/ml, up to 7 days, MTT assay. Here is the method:
A panel of 13 HNSCC and 6 NSCLC cells grown in 2D culture conditions using TCPs were treated with 25 μg/ml cixutumumab, and the effect of cixutumumab on growth of cancer cells tested was analyzed by the MTT assay.
The effect of cixutumumab on growth of 13 HNSCC and 6 NSCLC cells was evaluated by the MTT assay, and the results are shown in FIG. 2.
LN686, UMSCC38, and A549m cells were treated with cixutumumab diluted in 1% FBS-containing medium for 3 and 5 days. Cell viability was evaluated by the MTT assay.
Background: Tetrazolium assays rely on reduction of a dye to a coloured formazan, in cell work by metabolically active cells.

In assay [3] the test system is recombinant soluble integrin β3 (rβ3) binding to IGF-1. The experiment in a line: ELISA-type integrin binding assay on IGF-1-coated plates. As to conditions: 2 h. Here is the method:
IGF-1 (1 or 2 μg) was coated onto wells in 96-well microtiter plates and incubated with recombinant integrin β3 (0.5 μg/ml) and/or IGF-1R (0.1 or 0.5 μg/ml) protein diluted in 1 mM MnCl2-added HEPES-Tyrode buffer at room temperature for 2 h in the presence or absence of cixutumumab (10 μg/ml). Binding of integrin β3 and/or IGF-1R was detected by enzyme immunoassay using anti-His or anti-IGF-1R mAbs and avidin-labeled alkaline phosphatase-conjugated anti-mouse or anti-rabbit IgGs.
Secondly, the present inventors performed Enzyme-Linked ImmunoSorbent Assay-type integrin binding assay. Specifically, 96-well microtiter plates coated with IGF-1 were recombinant soluble IGF-1R (rIGF-1R; 5 μg/ml) or recombinant soluble integrin β3 (rβ3; 5 μg/ml), alone or in combination, in the presence or absence of cixutumumab (25 μg/ml) for 2 h. Bound IGF-1R (left) and integrin β3 (middle, right) were identified using anti-IGF1R and anti-His mAbs, respectively. The data are shown as the mean±SD of triplicate experiments (*P<0.05; **P=0.01; ***P<0.001).
A general note: In an ELISA, binding on a coated surface is turned into a signal by an enzyme label.

“cixutumumab: humanized mAb targeting IGF-1R, provided by ImClone Systems”: the “growth rates vs control cells” value in assay [1] (LN686 and FADU cells) was “no difference”; in assay [1] (OSC19 cells), “significantly slower growth rates”. Also, in assay [2], the “viability of cells grown in 2D culture conditions” value is “did not inhibit”. Also, the “ablation of IGF-1-rβ3 interaction by rIGF-1R” value in assay [3] is reported as “markedly blocked”.
